The record followed here is the NIST ThermoML archive (doi:10.1021/acs.jced.6b00230).

Numbers after ± are expanded uncertainties.

The conditions of data set [1]: Crystal.
Data set [2] can be described thus: Molar enthalpy of transition or fusion. To be noted: Crystal; DSC.

In the case of `O=C1NC(=O)c2cc([N+](=O)[O-])ccc21` [4-nitrophthalimide], the mass density in data set [1] (298.15 K, 101.33 kPa, Buoyancy - hydrostatic balance) is recorded as 1594.7 ± 2.1 kg/m3. Further, the Normal melting temperature in data set [1] (DTA) turned out to be 201.56 ± 1.1 °C. For the same compound, in data set [2], the “Molar enthalpy of transition or fusion” value was found to be 8.27 ± 0.263 kcal/mol.
